Structures are written as SMILES. Several values for one entry are separate records, joined by “and”; a condition that tells them apart may be missing. Identical values can stand only once. Like-named read-outs stand apart in the source and are kept apart here.

The series can be described thus: Compound I phosphate plasma levels in dogs with mast cell tumors (LC/MS/MS). It counts as in vivo, canine. Conditions: for concentration at 8 h / Cmax at 8 h: dog, plasma, oral; for Cmax at 8 h: dogs. On the procedure:
Study Design. This study was a proof of target modulation study in dogs with recurrent or metastatic grade MCTs. Patients received a single oral dose of Compound I phosphate at 3.25 mg/kg. Using a 6-mm punch biopsy instrument, samples were obtained from the tumor before Compound I phosphate administration and 8 hours (h) after treatment. When possible, multiple biopsies were taken. Each sample was flash frozen in liquid nitrogen and stored at −70° centigrade (C) before analysis. Blood samples for analysis of plasma levels of Compound I phosphate were obtained at the same time as tumor biopsies (see below).
Compound I Phosphate Plasma Levels. Blood samples were drawn from the jugular vein and placed into a red-top serum collection vacuum glass tube. Specimens were kept at room temperature, allowed to clot, centrifuged at 1500 rpm at 4° C. for 10 minutes, transferred to cryovials, and plasma frozen at −70° C. pending analysis. Briefly, plasma samples (20 μl) or Compound I phosphate standards in canine plasma were mixed with methanol (200 μl) containing DL-propranolol hydrochloride (internal standard) in a 96-well polypropylene plate (Orochem Technology, Westmont, Ill.). The plate was mixed by vortex for 1 min, and the samples were centrifuged for 10 min at 4000 rpm. Ten microliters of the supernatant were injected onto the LC/MS/MS system, in which separation occurred on a BataBasic C-18 (5 μm, 100×4.6 mm) reverse-phase high-performance liquid chromatography column (Keystone Scientific, Foster City, Calif.). The amount of Compound I phosphate and the internal standard in each canine plasma sample were quantified based on standard curves generated using known amounts of compound ranging from 0.2 to 500 ng/ml.

`Cc1[nH]c(/C=C2\C(=O)Nc3ccc(F)cc32)c(C)c1C(=O)NCCN1CCCC1` [Compound I phosphate]: the concentration at 8 h (3.25 mg/kg, single dose at 3.25 mg/kg, 8 h, read-out: average plasma concentration for dogs that did not score for KIT target modulation) was found to be 137 ± 36 ng/mL and the concentration at 8 h (3.25 mg/kg, single dose at 3.25 mg/kg, 8 h, read-out: average plasma concentration for dogs with evidence of KIT target modulation) amounted to 79.2 ± 41 ng/mL. The Cmax at 8 h runs as follows: (3.25 mg/kg, single dose at 3.25 mg/kg, read-out: plasma concentration at 8 h (approximately Cmax), average) 105 ± 9 ng/mL; (3.25 mg/kg, single dose at 3.25 mg/kg, read-out: plasma concentration at 8 h (approximately Cmax), range over dogs) 33.2 to 186 ng/mL. Besides, where the note is “individual dogs, single oral dose 3.25 mg/kg, 8 h after dosing, 3.25 mg/kg”, the “Plasma Compound I phosphate postdose” value was 0.3 ng/mL and 83.5 ng/mL and 98.0 ng/mL and 116.0 ng/mL and 121.0 ng/mL and 186.0 ng/mL and 103.0 ng/mL and 111.0 ng/mL and 158.0 ng/mL and 65.3 ng/mL and 95.4 ng/mL and 119.0 ng/mL and 81.0 ng/mL and 33.2 ng/mL. Under “single dose at 3.25 mg/kg, 8 h”, the “dogs with plasma levels considered to be in the therapeutic range” value was “Twelve”.

The values are drawn from patent US8987320B2, “Solid salt forms of a pyrrole substituted 2-indolinone” (Zoetis LLC, priority 2005, dated 2015).
